In patent publication US20170073337A1, “DIHYDROTHIAZINE AND DIHYDROOXAZINE DERIVATIVES HAVING BACE1 INHIBITORY ACTIVITY” (Shionogi & Co., Ltd., priority 2014, published 2017):
Converted amounts (≈) assume the structure as drawn. Where two headings read alike, the source gives them in different places.

How the values were obtained:
Recombinant human BACE1 = molecular target: T1, Recombinant human BACE1 (Homo sapiens, UniProt P56817); test: Assay of BACE1 inhibitory activity: 384-well; format: biochemical; settings: Assay format 384-well
T1 construct: purchased R&D Systems
T1 sequence (P56817 46-501): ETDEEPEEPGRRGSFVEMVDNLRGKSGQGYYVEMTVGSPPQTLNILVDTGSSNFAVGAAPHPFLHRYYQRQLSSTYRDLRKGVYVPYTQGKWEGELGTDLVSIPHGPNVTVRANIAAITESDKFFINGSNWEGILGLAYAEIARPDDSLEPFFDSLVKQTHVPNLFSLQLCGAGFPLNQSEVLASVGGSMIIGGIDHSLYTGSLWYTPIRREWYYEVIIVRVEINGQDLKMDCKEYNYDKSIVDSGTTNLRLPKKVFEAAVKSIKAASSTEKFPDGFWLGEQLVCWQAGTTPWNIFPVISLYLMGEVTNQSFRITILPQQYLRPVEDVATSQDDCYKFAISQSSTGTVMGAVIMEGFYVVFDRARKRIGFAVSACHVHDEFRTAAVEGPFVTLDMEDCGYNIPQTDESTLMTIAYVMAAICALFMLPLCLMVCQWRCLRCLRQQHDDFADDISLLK
Experimental: 5 μL of substrate peptide solution (Biotin-XSEVNLDAEFRHDSGC-Eu: X=ε-amino-n-capronic acid, Eu=Europium eryplate) was added to each well of 384-well plate (a black plate: Corning), and after addition of 0.1 μl of the compound of the present invention (DMSO solution) and 5 μl of Recombinant human BACE1 (R&D Systems), the reaction mixture was incubated at 25° C. for 2 hours. The substrate peptide was synthesized by reacting Cryptate TBPCOOH mono SMP (CIS bio international) with Biotin-XSEVNLDAEFRHDSGC (Peptide Institute, Inc.).
After the incubation for reaction, 10 μl of 8.0 μg/ml Streptavidin-XL665 (CIS bio International) dissolved in phosphate buffer (150 mmol/L K2HPO4-KH2PO4, pH 7.0, 0.008% Triton X-100, 0.8 mol/L KF) was added to each well and left stand at 25° C. for 30 minutes.

[1] = system: Aβ production in neuroblastoma SH-SY5Y cells (SH/APPwt); test: β-amyloid (Aβ) production inhibitory effect in cell: 384-well; format: cell-based; settings: Homo sapiens, Assay format 384-well
Experimental: Neuroblastoma SH-SY5Y cells (SH/APPwt) with human wild-type β-APT excessively expressed therein were prepared at 4×10^5 cells/mL, and 50 μl portions thereof were inoculated into each well of a 384-well culture plate (Corning) added 0.5 μl of the test compound of the present invention (DMSO solution). The final DMSO concentration was 1%, and the amount of the cell culture was 50 μl. After the incubation was performed for 21 hours from the cell seeding, 5 μl of the culture supernatant was collected from each fraction. The amount of the Aβ in each fraction was measured.
The Aβ amount was measured as follows. 5 μl of a homogeneous time resolved fluoresrenee (HTRF) measurement reagent (Amyloid β1-40 peptide; CIS bio international) and 5 μl of the culture supernatant were put into a 384′well plate (a black plate: Corning) and mixed with each other, and then left standing overnight at 4° C. while the light was shielded. Then, the fluorescence intensity (620 nm and 665 nm) was measured with EnViston (Perkin Elmer life sciences).

CYP1A2 = molecular target: T2, CYP1A2 (Homo sapiens, UniProt P05177); test: CYP inhibition test (CYP1A2); format: in vitro ADME; settings: pooled human liver microsomes; 7-ethoxyresorufin O-deethylation
T2 construct: The commercially available pooled human liver microsomes are used as an enzyme resource; from tissue; host or cells: pooled human liver microsomes
T2 sequence (P05177 1-516): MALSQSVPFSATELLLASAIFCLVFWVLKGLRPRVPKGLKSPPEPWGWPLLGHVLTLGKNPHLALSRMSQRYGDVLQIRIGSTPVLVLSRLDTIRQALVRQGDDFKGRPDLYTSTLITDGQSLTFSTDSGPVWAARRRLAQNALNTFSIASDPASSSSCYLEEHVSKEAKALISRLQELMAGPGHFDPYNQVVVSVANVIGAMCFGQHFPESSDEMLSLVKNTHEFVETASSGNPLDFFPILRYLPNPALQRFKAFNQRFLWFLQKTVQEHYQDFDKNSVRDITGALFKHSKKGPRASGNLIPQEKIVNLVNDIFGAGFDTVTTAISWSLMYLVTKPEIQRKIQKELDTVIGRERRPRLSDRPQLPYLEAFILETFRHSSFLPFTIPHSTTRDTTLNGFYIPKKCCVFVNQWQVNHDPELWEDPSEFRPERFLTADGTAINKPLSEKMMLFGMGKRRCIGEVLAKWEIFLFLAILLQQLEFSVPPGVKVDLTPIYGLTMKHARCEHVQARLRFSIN
Excerpt: (§1) The CYP inhibition test is a test to assess the inhibitory effect of a compound of the present invention towards typical substrate metabolism reactions on CYP enzymes in human liver microsomes. The marker reactions on human main five CYP enzymes (CYP1A2, 2C9, 2C19, 2D6, and 3A4) are used as follows: 7-ethoxyresorufin O-deethylation (CYP1A2), tolbutamide methyl-hydroxylation (CYP2C9), mephenytoin 4′-hydroxylation (CYP2C19), dextromethorphan O-demethylation (CYP2D6), and terfenadine hydroxylation (CYP3A4). The commercially available pooled human liver microsomes are used as an enzyme resource.
(§2) The reaction conditions were as follows: substrate, 0.5 μmol/L ethoxyresorufin (CYP1A2), 100 μmol/L tolbutamide (CYP2C9), 50 μmol/L, S-mephenytoin (CYP2C19), 5 μmol/L dextromethorphan (CYP2D6), 1 μmol/L terfenadine (CYP3A4): reaction time, 15 minutes: reaction temperature, 37° C.; enzyme, pooled human liver microsomes 0.2 mg protein/mL; concentrations of the compound of the present invention, 1, 5, 10, 20 μmol/L (four points).
(§3) Five kinds of substrates, human liver microsomes, and a compound solution of the present invention in […] Hepes buffer were added to a 96-well plate at the composition as described above as a reaction solution. NADPH as a cofactor was added to this 96-well plate in order to initiate metabolism reactions. After the incubation at 37° C.for […], a methanol/acetonitrile=1/1 (v/v) solution was added to stop the reaction. After the centrifugation at 3000 rpm for 15 minutes, resorufin (CYP1A2 metabolite) in the supernatant was quantified by a fluorescent plate reader, and hydroxytolbutamide (CYP2C9 metabolite), 4′-hydroxymephenytoin (CYP2C19 metabolite), dextrorphan (CYP2D6 metabolite), and terfenadine alcohol metabolite (CYP3A4 metabolite) in the supernatant were quantified by LC/MS/MS.
(§4) The sample adding DMSO to a reaction system instead of compound of the present invention solution was adopted as a control (100%) because DMSO was used as a solvent to dissolve a compound of the present invention. Remaining activity (%) was calculated at each concentration of a compound of the present invention, and IC50 value was calculated by reverse presumption by a logistic model using a concentration and an inhibition rate.

CYP2C9 = molecular target: T3, CYP2C9 (Homo sapiens, UniProt P11712); test: CYP inhibition test (CYP2C9); format: in vitro ADME; settings: pooled human liver microsomes; tolbutamide methyl-hydroxylation
T3 construct: The commercially available pooled human liver microsomes are used as an enzyme resource; from tissue; host or cells: pooled human liver microsomes
T3 sequence (P11712 whole entry): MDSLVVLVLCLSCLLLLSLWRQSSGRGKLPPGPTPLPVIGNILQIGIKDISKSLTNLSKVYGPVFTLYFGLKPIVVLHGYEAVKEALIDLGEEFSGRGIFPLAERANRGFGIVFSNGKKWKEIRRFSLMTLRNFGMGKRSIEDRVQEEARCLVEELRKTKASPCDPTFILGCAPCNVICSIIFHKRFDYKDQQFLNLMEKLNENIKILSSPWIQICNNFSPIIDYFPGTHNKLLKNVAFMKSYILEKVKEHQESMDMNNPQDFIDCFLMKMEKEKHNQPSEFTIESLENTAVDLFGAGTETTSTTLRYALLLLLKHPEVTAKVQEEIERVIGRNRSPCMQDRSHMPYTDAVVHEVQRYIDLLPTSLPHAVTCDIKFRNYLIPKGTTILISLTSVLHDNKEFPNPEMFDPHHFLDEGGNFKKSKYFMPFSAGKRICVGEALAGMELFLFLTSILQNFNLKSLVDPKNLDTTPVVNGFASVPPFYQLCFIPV
Excerpt: as §1, §2, §3, §4

CYP2C19 = molecular target: T4, CYP2C19 (Homo sapiens, UniProt P33261); test: CYP inhibition test (CYP2C19); format: in vitro ADME; settings: pooled human liver microsomes; mephenytoin 4′-hydroxylation
T4 construct: The commercially available pooled human liver microsomes are used as an enzyme resource; from tissue; host or cells: pooled human liver microsomes
T4 sequence (P33261 whole entry): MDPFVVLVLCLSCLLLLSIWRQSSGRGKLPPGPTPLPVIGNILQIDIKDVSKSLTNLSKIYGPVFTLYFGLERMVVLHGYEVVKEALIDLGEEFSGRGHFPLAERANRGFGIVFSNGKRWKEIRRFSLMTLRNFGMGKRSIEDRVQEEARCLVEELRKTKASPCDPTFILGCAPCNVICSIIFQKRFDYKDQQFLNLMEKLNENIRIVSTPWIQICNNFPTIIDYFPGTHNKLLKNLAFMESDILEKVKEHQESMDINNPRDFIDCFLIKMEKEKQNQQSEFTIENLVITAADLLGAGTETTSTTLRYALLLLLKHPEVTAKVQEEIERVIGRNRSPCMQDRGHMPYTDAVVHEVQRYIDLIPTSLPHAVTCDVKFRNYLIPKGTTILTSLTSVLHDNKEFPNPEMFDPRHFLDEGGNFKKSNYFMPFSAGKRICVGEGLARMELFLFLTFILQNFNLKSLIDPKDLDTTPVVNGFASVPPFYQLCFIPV
Excerpt: as §1, §2, §3, §4

CYP2D6 = molecular target: T5, CYP2D6 (Homo sapiens, UniProt P10635); test: CYP inhibition test (CYP2D6); format: in vitro ADME; settings: pooled human liver microsomes; dextromethorphan O-demethylation
T5 construct: The commercially available pooled human liver microsomes are used as an enzyme resource; from tissue; host or cells: pooled human liver microsomes
T5 sequence (P10635 whole entry): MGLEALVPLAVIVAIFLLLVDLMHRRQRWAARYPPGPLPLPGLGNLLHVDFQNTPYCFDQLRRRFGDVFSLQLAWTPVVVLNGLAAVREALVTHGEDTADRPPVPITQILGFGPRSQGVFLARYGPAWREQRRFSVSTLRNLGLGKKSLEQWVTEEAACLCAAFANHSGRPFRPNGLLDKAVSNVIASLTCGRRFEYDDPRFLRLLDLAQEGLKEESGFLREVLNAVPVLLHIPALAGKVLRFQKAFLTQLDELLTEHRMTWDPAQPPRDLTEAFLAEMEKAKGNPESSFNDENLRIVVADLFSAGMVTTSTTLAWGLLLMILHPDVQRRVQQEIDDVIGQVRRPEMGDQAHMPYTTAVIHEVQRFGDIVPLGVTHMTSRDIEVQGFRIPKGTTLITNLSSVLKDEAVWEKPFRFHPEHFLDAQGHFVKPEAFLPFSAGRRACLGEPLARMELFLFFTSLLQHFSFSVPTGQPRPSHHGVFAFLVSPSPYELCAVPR
Excerpt: as §1, §2, §3, §4

CYP3A4 = molecular target: T6, CYP3A4 (Homo sapiens, UniProt P08684); test: CYP inhibition test (CYP3A4); format: in vitro ADME; settings: pooled human liver microsomes; terfenadine hydroxylation
T6 construct: The commercially available pooled human liver microsomes are used as an enzyme resource; from tissue; host or cells: pooled human liver microsomes
T6 sequence (P08684 whole entry): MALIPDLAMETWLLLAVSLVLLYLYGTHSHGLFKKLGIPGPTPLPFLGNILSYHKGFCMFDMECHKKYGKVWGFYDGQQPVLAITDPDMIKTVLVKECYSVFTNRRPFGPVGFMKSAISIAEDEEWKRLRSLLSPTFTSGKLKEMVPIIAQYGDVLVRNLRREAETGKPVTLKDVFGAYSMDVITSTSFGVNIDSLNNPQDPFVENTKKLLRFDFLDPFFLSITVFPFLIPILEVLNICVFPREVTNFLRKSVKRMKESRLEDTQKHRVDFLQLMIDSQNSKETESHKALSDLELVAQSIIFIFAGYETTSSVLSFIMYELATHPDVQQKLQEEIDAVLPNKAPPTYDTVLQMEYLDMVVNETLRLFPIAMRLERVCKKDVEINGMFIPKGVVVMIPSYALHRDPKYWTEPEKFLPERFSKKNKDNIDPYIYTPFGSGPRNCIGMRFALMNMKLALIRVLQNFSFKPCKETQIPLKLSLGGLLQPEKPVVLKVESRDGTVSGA
Excerpt: as §1, §2, §3, §4

Solubility test = format: physicochemical; settings: for solubility kinetic at 1 h: kinetic from dmso stock; for solubility kinetic at 16 h: solubility in JP 2nd fluid B, 1% DMSO, *2: shaken for 1 hour at room temperature
Experimental: A 10 mmol/L solution of the compound was prepared with DMSO, and 2 μL of the compound of the present invention solution was added, respectively, to 198 μL of JP 1st fluid (water was added to 2.0 g of sodium chloride and 7.0 ml, of hydrochloric acid to reach 1000 mL) and JP 2nd fluid (See Table 4). The mixture was left standing for 16 hours at 25° C. or shaken for 1 hour at ruom temperature, and the mixture was vacuum-filtered. The […] was ten or one hundred-fold diluted with metbanol/water=1/1 (v/v) or MeCN/MeOH/H2O(=1/1/2), and the compound concent ration in the filtrate was measured with LC/MS or solid phase extraction (SPE)/MS by the absolute calibration method.

Metabolic stability test = format: in vitro ADME; settings: human liver microsomes, 37° C., 30 minutes, NADPH
Experimental: Using a commercially available pooled human liver microsomes, a compound of the present invention was reacted for a constant time, a remaining rate was calculated by comparing a reacted sample and an unreacted sample, thereby, a degree of metabolism in liver was assessed.
A reaction was performed (oxidative reaction) at 37° C. for 0 minute or 30 minutes in the presence of 1 mmol/L NADPH in 0.2 mL of a buffer (60 mmol/L Tris-HCl pH 7.4, 150 mmol/L potassium chloride, 10 mmol/L magnesium chloride) containing 0.5 mg protein/mL of human liver microsomes. After the reaction, 50 μL of the reaction solution was added to 100 μL of a methanol/acetonltrile=1/1 (v/v), mixed and centrifuged at 3000 rpm for 15 minutes. The compound of the present invention in the supernatant was quantified by LC/MS/MS or solid phase extraction (SPE)/MS, and a remaining amount of the compound of the present invention after the reaction area calculated, letting a compound amount at 0 minute reaction time to be 100%.

[2] = JP 1st fluid, pH 1.2, simulated gastric fluid, read-out: JP1
[3] = JP 2nd fluid B, pH 6.8, aqueous buffer, read-out: JP2_μM

| SMILES | IC50 (Recombinant human BACE1) [µM] | IC50 [1] [µM] | IC50 (CYP1A2) [µM] | IC50 (CYP2C9) [µM] | IC50 (CYP2C19) [µM] | IC50 (CYP2D6) [µM] | IC50 (CYP3A4) [µM] | solubility kinetic at 1 h (Solubility test; [2]) [µM] | solubility kinetic at 1 h (Solubility test; [3]) [µM] | solubility kinetic at 16 h (Solubility test; read-out: JP2_μM) [µM] | remaining % (Metabolic stability test) [%] |
| --- | --- | --- | --- | --- | --- | --- | --- | --- | --- | --- | --- |
| C[C@@H]1SC(N)=N[C@](C)(c2cc(NC(=O)c3ccc(C#N)cn3)ccc2F)[C@@H]1F [Compound I-113] | 0.164 | 0.04 | ≥ 20 | ≥ 20 | ≥ 20 | ≥ 20 | ≥ 20 | > 50 | 48.6 (≈ 19.5 µg/mL) |  |  |
| C[C@H]1SC(N)=N[C@](C)(c2cccc(NC(=O)c3ccc(F)cn3)c2)[C@H]1F [Compound I-115] | 0.0343 | 0.0072 | ≥ 10 | ≥ 20 | ≥ 20 | ≥ 20 | ≥ 20 | > 50 |  | >50.0 | 78.9 |
| [2H]C([2H])([2H])Oc1cnc(C(=O)Nc2cccc([C@@]3(C)N=C(N)S[C@H](C)[C@@H]3F)c2)cn1 [Compound I-114] | 0.0415 | 0.0051 | ≥ 20 | ≥ 10 | ≥ 20 | ≥ 20 | ≥ 20 | > 50 |  | >50.0 | 80.5 |
| C[C@H]1SC(N)=N[C@](C)(c2cccc(NC(=O)c3ccc(OCF)cn3)c2)[C@H]1F [Compound I-107] | 0.0235 | 0.00042 | ≥ 20 | ≥ 10 | ≥ 20 | ≥ 20 | ≥ 20 | 33.5 (≈ 13.6 µg/mL) | > 50 |  | 64.2 |
